Source: PubChem BioAssay (NCI)
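Step 1: Grow cells in 96-well plates. Step 2: Expose to compound for 48 hours at 5 concentrations. Step 3: Interpolate endpoints linearly; if unreached, use highest concentration. Definition used: TGI = concentration required for complete inhibition of growth.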

Experiments:
Test in all cases: inhibition of tumour cell growth, NCI panel, 48 h
TK-10 renal = tested on: TK-10 renal
A549 NSCLC = tested on: A549 NSCLC
EKVX NSCLC = tested on: EKVX NSCLC
OVCAR-5 ovarian = tested on: OVCAR-5 ovarian
MDA-N = tested on: MDA-N
HOP-92 NSCLC = tested on: HOP-92 NSCLC
SF-268 CNS = tested on: SF-268 CNS
KM12 colon = tested on: KM12 colon
HCC-2998 colon = tested on: HCC-2998 colon
NCI-H23 lung = tested on: NCI-H23 lung
MDA-MB-435 = tested on: MDA-MB-435
HCT-15 colon = tested on: HCT-15 colon
HOP-62 NSCLC = tested on: HOP-62 NSCLC
SR leukemia = tested on: SR leukemia
MCF7 breast = tested on: MCF7 breast
SN12C renal = tested on: SN12C renal
A498 renal = tested on: A498 renal
DU-145 prostate = tested on: DU-145 prostate
COLO 205 colon = tested on: COLO 205 colon
SK-MEL-28 melanoma = tested on: SK-MEL-28 melanoma
M14 melanoma = tested on: M14 melanoma
NCI-H226 lung = tested on: NCI-H226 lung
UACC-62 melanoma = tested on: UACC-62 melanoma
HCT-116 colon = tested on: HCT-116 colon
HT29 colon = tested on: HT29 colon
K-562 leukemia = tested on: K-562 leukemia
RXF 393 renal = tested on: RXF 393 renal
LOX IMVI melanoma = tested on: LOX IMVI melanoma
NCI/ADR-RES ovarian = tested on: NCI/ADR-RES ovarian
PC-3 prostate = tested on: PC-3 prostate
HL-60(TB) leukemia = tested on: HL-60(TB) leukemia
T-47D breast = tested on: T-47D breast
MALME-3M melanoma = tested on: MALME-3M melanoma
BT-549 breast = tested on: BT-549 breast
CCRF-CEM leukemia = tested on: CCRF-CEM leukemia
UACC-257 melanoma = tested on: UACC-257 melanoma
MOLT-4 leukemia = tested on: MOLT-4 leukemia
HS 578T breast = tested on: HS 578T breast
MDA-MB-231 breast = tested on: MDA-MB-231 breast
RPMI-8226 leukemia = tested on: RPMI-8226 leukemia
SF-295 CNS = tested on: SF-295 CNS
CAKI-1 renal = tested on: CAKI-1 renal
IGROV1 ovarian = tested on: IGROV1 ovarian
OVCAR-4 ovarian = tested on: OVCAR-4 ovarian
SK-MEL-5 melanoma = tested on: SK-MEL-5 melanoma
SW-620 colon = tested on: SW-620 colon
ACHN renal = tested on: ACHN renal
786-0 renal = tested on: 786-0 renal
SK-OV-3 ovarian = tested on: SK-OV-3 ovarian
SK-MEL-2 melanoma = tested on: SK-MEL-2 melanoma
OVCAR-8 ovarian = tested on: OVCAR-8 ovarian
OVCAR-3 ovarian = tested on: OVCAR-3 ovarian
U251 CNS = tested on: U251 CNS
UO-31 renal = tested on: UO-31 renal
SNB-75 CNS = tested on: SNB-75 CNS
NCI-H522 lung = tested on: NCI-H522 lung
NCI-H460 lung = tested on: NCI-H460 lung
SF-539 CNS = tested on: SF-539 CNS
SNB-19 CNS = tested on: SNB-19 CNS

Measured: TGI

CCc1n[nH]c(=O)n1N1C(=O)C2CCCCC2C1=O (stereo unspecified)
> 100 µM: TK-10 renal | A549 NSCLC | EKVX NSCLC | OVCAR-5 ovarian | MDA-N | HOP-92 NSCLC | SF-268 CNS | KM12 colon | HCC-2998 colon | NCI-H23 lung | MDA-MB-435 | HCT-15 colon | HOP-62 NSCLC | SR leukemia | MCF7 breast | SN12C renal | A498 renal | DU-145 prostate | COLO 205 colon | SK-MEL-28 melanoma | M14 melanoma | NCI-H226 lung | UACC-62 melanoma | HCT-116 colon | HT29 colon | K-562 leukemia | RXF 393 renal | LOX IMVI melanoma | NCI/ADR-RES ovarian | PC-3 prostate | HL-60(TB) leukemia | T-47D breast | MALME-3M melanoma | BT-549 breast | CCRF-CEM leukemia | UACC-257 melanoma | MOLT-4 leukemia | HS 578T breast | MDA-MB-231 breast | RPMI-8226 leukemia | SF-295 CNS | CAKI-1 renal | IGROV1 ovarian | OVCAR-4 ovarian | SK-MEL-5 melanoma | SW-620 colon | ACHN renal | 786-0 renal | SK-OV-3 ovarian | SK-MEL-2 melanoma | OVCAR-8 ovarian | OVCAR-3 ovarian | U251 CNS | UO-31 renal | SNB-75 CNS | NCI-H522 lung

CCOC(=O)C(C)c1nc2cc(N3CCOCC3)c(F)cc2[nH]c1=O (stereo unspecified)
> 100 µM: TK-10 renal | A549 NSCLC | NCI-H460 lung | EKVX NSCLC | OVCAR-5 ovarian | MDA-N | HOP-92 NSCLC | SF-268 CNS | KM12 colon | HCC-2998 colon | NCI-H23 lung | MDA-MB-435 | HCT-15 colon | HOP-62 NSCLC | SR leukemia | MCF7 breast | SN12C renal | A498 renal | DU-145 prostate | COLO 205 colon | SK-MEL-28 melanoma | M14 melanoma | SF-539 CNS | NCI-H226 lung | UACC-62 melanoma | HCT-116 colon | HT29 colon | K-562 leukemia | RXF 393 renal | NCI/ADR-RES ovarian | PC-3 prostate | HL-60(TB) leukemia | T-47D breast | MALME-3M melanoma | BT-549 breast | CCRF-CEM leukemia | SNB-19 CNS | UACC-257 melanoma | MOLT-4 leukemia | HS 578T breast | MDA-MB-231 breast | RPMI-8226 leukemia | SF-295 CNS | CAKI-1 renal | IGROV1 ovarian | OVCAR-4 ovarian | SK-MEL-5 melanoma | SW-620 colon | ACHN renal | 786-0 renal | SK-OV-3 ovarian | SK-MEL-2 melanoma | OVCAR-8 ovarian | OVCAR-3 ovarian | U251 CNS | UO-31 renal | SNB-75 CNS | NCI-H522 lung

CC1(C)CC[C@]2(C(=O)O)CC[C@]3(C)C(=CC[C@@H]4[C@@]5(C)CC[C@H](OC6OC(C(=O)O)C(O)C(O)C6O)C(C)(C)[C@@H]5CC[C@]43C)[C@@H]2C1 (stereo partly specified)
35.5 µM: HL-60(TB) leukemia
31.1 µM: RXF 393 renal
33.4 µM: UACC-62 melanoma
33.5 µM: MDA-MB-231 breast
33.9 µM: HOP-62 NSCLC | OVCAR-4 ovarian
40.5 µM: BT-549 breast
35.7 µM: A498 renal
41.3 µM: MOLT-4 leukemia
35.1 µM: SNB-75 CNS
40.8 µM: MCF7 breast
39.7 µM: SK-MEL-28 melanoma
30.6 µM: HCT-15 colon | M14 melanoma
31.4 µM: DU-145 prostate
33.7 µM: CAKI-1 renal
38.2 µM: HCC-2998 colon
28 µM: OVCAR-3 ovarian | U251 CNS
25.9 µM: HOP-92 NSCLC
38.6 µM: SF-268 CNS
33.6 µM: 786-0 renal
41.6 µM: SK-OV-3 ovarian
37.5 µM: K-562 leukemia
31.8 µM: SW-620 colon
35.8 µM: LOX IMVI melanoma
33.8 µM: MDA-N
36.3 µM: T-47D breast | UO-31 renal
39.5 µM: NCI-H226 lung
34.7 µM: KM12 colon
39.3 µM: A549 NSCLC
33.2 µM: SK-MEL-5 melanoma
44.4 µM: RPMI-8226 leukemia
28.7 µM: SF-295 CNS
29.6 µM: ACHN renal
64.8 µM: EKVX NSCLC
38.5 µM: MDA-MB-435
37.2 µM: NCI-H460 lung | NCI/ADR-RES ovarian
41.1 µM: SR leukemia
29.7 µM: OVCAR-5 ovarian
42.8 µM: CCRF-CEM leukemia
29.8 µM: SK-MEL-2 melanoma
48.7 µM: SNB-19 CNS
44 µM: HS 578T breast
37.1 µM: NCI-H23 lung
28.4 µM: HT29 colon
30.4 µM: HCT-116 colon
44.9 µM: OVCAR-8 ovarian
33 µM: PC-3 prostate
35 µM: IGROV1 ovarian
34.2 µM: MALME-3M melanoma
30.8 µM: SN12C renal | COLO 205 colon | UACC-257 melanoma
35.3 µM: NCI-H522 lung
